Test: Water solubility of agrochemical active ingredient at 20° C.
Assay type: physicochemical

Compound	water solubility at 20° C.
Cc1nnc(Cl)c(-c2c(F)cccc2F)c1-c1ccccc1 [Pyridachlometyl]	0.8 ppm
Inpyrfluxam	16.4 ppm

— US20250374919A1, “AQUEOUS SUSPENSION AGROCHEMICAL COMPOSITION CONTAINING NATURAL RUBBER” (SUMITOMO CHEMICAL COMPANY, LIMITED, priority 2022, published 2025)
